Where two headings read alike, the source gives them in different places.
Key:
rats = assay: aconitine-induced disturbance of the heart rhythm in rats (electrocardiogram); assay type: in vivo; conditions: for ED25 / ED50: Rattus norvegicus
Text: The anti-arrhythmic effect of the diamines could also be confirmed in intact research animals with an experimentally-induced disturbance of the heart rhythm. If rats are continuously infused intravenously with aconitine, severe disturbances in the heartbeat sequence, such as extrasystoles, ventricular tachycardia, and ventricular flutter, which eventually lead to the death of the experimental animal, can be detected in an electrocardiogram. By a pre-treatment with the new pharmaceutical agents, the appearance of these threatening disturbances of the heart rhythm can be hindered or, on continuous administration of aconitine, can be considerably delayed. This experimental model of arrhythmia has already been checked for its evidentiary value using clinically tested standard therapeutic agents and is highly suitable for an experimental animal characterization of anti-arrhythmic agents [cf. Bianchi et al., Arzneim. Forsch. 18, 845-850 (1968); Haas and Busch, Arzneim. Forsch. 18, 401-407 (1968); Haas et al., Arzneim. Forsch. 21, 1392-1399 (1971); Marmo, Naunyn-Schmiedeberg's Arch. Pharmak. 269, 231-247 (1971); and Strubelt et al., Naunyn-Schmiedeberg's Arch. Pharmak. 271, 346-360 (1971)].
The ED25 and ED50 are the intravenous or oral doses in mg/kg that permit a 25 percent or 50 percent increase in the dosage of aconitine administered, versus the aconitine control, until the occurrence of extrasystoles, ventricular tachycardia, and ventricular flutter.

[1] = system: left auricle of the guinea pig; assay: inotropic effect: decrease in contractile force of the heart muscle; conditions: for Therapeutic Breadth (III/II): ratio ED25 inotropic / ED25 anti-arrhythmic
Text: Jovier, J. Pharmakol. Exp. Therap. […] In this experimental arrangement, the numerous anti-arrhythmic agents, of different chemical structure and different therapeutic points of attack in man, heretofore used in therapy are all characterized by a lengthening of the functional refractory period. The method additionally permits determining the effects of the substance on the contractile force of the heart muscle [Reuter and Heeg, Naunyn-Schmiedeberg's Arch. Pharmak. […] Pharmak. […] It is, thus, highly suitable for detecting substances having a large therapeutic breadth, i.e., with a large margin of safety between anti-arrhythmically- and negative inotropically-effective doses.
The testing of the substances employed up to 30 individual experiments in each case. For the determination of the effective dose, linear regression functions were calculated [cf.
(§1) In column I of following Table 1, one of the new compounds and known anti-arrhythmic agents are entered. Column II gives the anti-arrhythmic effect. Column III reports the inotropic effect. The therapeutic breadth of the compounds is given in column IV. The ED25 is the effective dose which lengthens the refractory period by 25 percent or lowers the contractile force by 25 percent.

[2] = system: left auricle of the guinea pig; assay: functional refractory period of the left auricle of the guinea pig using paired electrical stimulation (anti-arrhythmic effect); conditions: for activation at 100 µM: 10^-^4 Mol/l; for Anti-arrhythmic Effect (Prolongation of the Refractory Period) ED25: dose which lengthens the refractory period by 25 percent, up to 30 minutes after addition to bath liquid; for activation at 10 µM: 10^-^5 Mol/l
Text: Jovier, J. Pharmakol. Exp. Therap. 148, 100-105 (1965). In this experimental arrangement, the numerous anti-arrhythmic agents, of different chemical structure and different therapeutic points of attack in man, heretofore used in therapy are all characterized by a lengthening of the functional refractory period. The method additionally permits determining the effects of the substance on the contractile force of the heart muscle [Reuter and Heeg, Naunyn-Schmiedeberg's Arch. Pharmak. 268, 323-333 (1971) and Zetler and Strubelt, Naunyn-Schmiedeberg's Arch. Pharmak. 271, 335-345 (1971)]. It is, thus, highly suitable for detecting substances having a large therapeutic breadth, i.e., with a large margin of safety between anti-arrhythmically- and negative inotropically-effective doses.
The testing of the substances employed up to 30 individual experiments in each case. For the determination of the effective dose, linear regression functions were calculated [cf. A. Lindner, Statistische Methoden, 3rd Edition, Birkhaeuser Verlag, Basel (1969)], in which the maximum percentage deviations from the starting value in a time period up to 30 minutes after addition of the test substance to the bath liquid was employed.
as §1

[3] = iv, read-out: Ventr. Tachycardia ED25
[4] = iv, read-out: Ventr. Tachycardia ED50
[5] = Cavia porcellus, read-out: Anti-arrhythmic Effect (% Prolongation of the Refractory Period)
[6] = dose which lowers the contractile force by 25 percent, up to 30 minutes after addition to bath liquid

c1ccc(CNCCCNCc2ccccc2)cc1 was tested, and the ED25 (rats; iv, read-out: Extrasystoles ED25) was 5.2 mg/kg, the ED50 (rats; iv, read-out: Extrasystoles ED50) was 6 mg/kg and the ED25 (rats; iv, read-out: Ventr. Flutter ED25) was 4.9 mg/kg. For the same compound, the ED50 (rats; iv, read-out: Ventr. Flutter ED50) was 6.4 mg/kg, the ED25 (rats; [3]) was 5.3 mg/kg and the ED50 (rats; [4]) was 6.2 mg/kg. For the same compound, the ED25 (rats; po, read-out: Extrasystoles ED25) was 65.8 mg/kg, the ED50 (rats; po, read-out: Extrasystoles ED50) was 96.2 mg/kg and the ED25 (rats; po, read-out: Ventr. Flutter ED25) was 51.1 mg/kg. The ED50 (rats; po, read-out: Ventr. Flutter ED50) was 69.9 mg/kg, the ED25 (rats; po, read-out: Ventr. Tachycardia ED25) was 55.4 mg/kg and the ED50 (rats; po, read-out: Ventr. Tachycardia ED50) was 71.6 mg/kg. The “effect in aconitine arrhythmia” value (rats; Table 3, parenterally as well as orally) was “superior effect”, the “Inotropic Effect (Decrease in Contractile Force) ED25” value ([1]; guinea pig) was 0.141 and the “Therapeutic Breadth (III/II)” value [1] was 2.6. For the same compound, the activation at 100 µM [2, 5] was 47% and the “Anti-arrhythmic Effect (Prolongation of the Refractory Period) ED25” value (from here on “Anti-arrhythmic Effect”) [2] was 0.054.
In the case of c1ccc(CN(CC2=NCCN2)c2ccccc2)cc1 [Antazoline, antazoline], the “Inotropic Effect (Decrease in Contractile Force) ED25” value [1, 6] is reported as 0.094, the “Therapeutic Breadth (III/II)” value [1] is reported as 0.6 and the “Anti-arrhythmic Effect” value [2] is reported as 0.164.
For Clc1cccc(CNCCCNCc2cccc(Cl)c2)c1 [N,N'-di-(3'-chlorobenzyl)-propylene-1,3-diamine], the activation at 20 µM ([2]; Cavia porcellus, 2 × 10^-^5 Mol/l, read-out: Anti-arrhythmic Effect (% Prolongation of the Refractory Period)) was 45%.
Clc1ccc(CNCCCNCc2ccc(Cl)cc2)cc1 [N,N'-di-(4'-chlorobenzyl)-1,3-diaminopropane] gave an activation at 10 µM [2, 5] of 37%.
For Clc1ccc(CNCCCNCc2ccc(Cl)c(Cl)c2)cc1Cl [N,N'-di-(m,p-dichlorobenzyl)-propylenediamine], the activation at 10 µM [2, 5] was 26%.
COc1ccc(CNCCCNCc2ccc(OC)c(OC)c2)cc1OC [N,N'-di-(m,p-dimethoxybenzyl)propylenediamine] showed an activation at 100 µM [2, 5] of 42%.
In the case of c1ccc(CNCCNCc2ccccc2)cc1 [N,N'-dibenzyl-ethylenediamine], the activation at 100 µM [2, 5] is reported as 39%.
For CCC[N+]12C(O)C(CC)C3CC1C1N(C)c4ccccc4C14CC2C3C4O (stereo not drawn) [N,n-propylajmaline, N-propylajmaline], the “Inotropic Effect (Decrease in Contractile Force) ED25” value [1, 6] was 0.0015, the “Therapeutic Breadth (III/II)” value [1] was 0.4 and the “Anti-arrhythmic Effect” value [2] was 0.0037.
C1CCN2C[C@@H]3C[C@@H](CN4CCCC[C@@H]34)[C@H]2C1 [SPARTEINE, reference compound] showed an ED25 (rats; [3]) of 4.4 mg/kg and an ED50 (rats; [4]) of 9.6 mg/kg.

Source: US4010282A, “Anti-arrhythmic agents” (Knoll A.G. Chemische Fabriken, priority 1974, dated 1977)
